Measurements published in ChEMBL document CHEMBL1122856, “Study on the inhibition of adenosine deaminase” (J Med Chem, 1985).

Target: T1, Adenosine deaminase (Bos taurus, UniProt P56658)
T1 sequence (P56658 whole entry): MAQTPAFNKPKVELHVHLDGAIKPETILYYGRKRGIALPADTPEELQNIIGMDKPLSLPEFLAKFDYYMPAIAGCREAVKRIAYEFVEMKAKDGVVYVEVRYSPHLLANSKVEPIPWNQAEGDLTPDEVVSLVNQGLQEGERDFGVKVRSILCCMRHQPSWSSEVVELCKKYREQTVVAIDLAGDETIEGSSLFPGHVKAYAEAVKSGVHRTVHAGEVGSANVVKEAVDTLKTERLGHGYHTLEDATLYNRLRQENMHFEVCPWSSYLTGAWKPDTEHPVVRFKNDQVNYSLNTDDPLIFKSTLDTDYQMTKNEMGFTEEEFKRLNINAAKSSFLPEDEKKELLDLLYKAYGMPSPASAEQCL
Test: Ability to inhibit the deamination of adenosine by calf intestine adenosine deaminase

Cc1c([C@@H](C)O)ncn1C1O[C@H](CO)[C@@H](O)[C@H]1O (stereo partly specified)
Ki: 61 µM
